Reference: patent publication US6166290A, “Glutathione-S-conjugate transport in plants” (The Trustees of the University of Pennsylvania, priority 1997, dated 2000)

Legend:
[1] = target: T1, YCF1 (vacuolar membrane vesicles purified from DTY165 cells) (Saccharomyces cerevisiae, UniProt P39109); assay: [3H]DNP-GS uptake by vacuolar membrane vesicles purified from DTY165 cells; assay type: biochemical
T1 construct: endogenous in cells; host or cells: S. cerevisiae DTY165 (wild type YCF1), vacuolar membrane vesicles
Summary of the method: (§1)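 ATP-dependent [3H]DNP-GS (66.2 μM) transport measured by filtration and scintillation counting of Ficoll-purified yeast vacuolar vesicles (DTY165 wild type; DTY167 ycf1Δ), 1–60 min at 25 °C in sorbitol/Tris-Mes pH 8.0 with 3 mM ATP, 3 mM MgSO4 and gramicidin-D. Nonenergized uptake without ATP/Mg2+.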

[2] = system: vacuolar membrane vesicles purified from DTY167 cells (ycf1Δ mutant); assay type: biochemical, Saccharomyces cerevisiae; settings: 5 μM gramicidin D, GSH, GSSG 1 mM, GS-conjugates 100 μM
Summary of the method: as §1

[3] = target: T2, AtMRP1 (Arabidopsis thaliana, UniProt Q9C8G9); assay: AtMRP1-dependent uptake by membrane vesicles from pYES3-AtMRP1-transformed DTY168 cells; assay type: biochemical; settings: MgATP-dependent, uncoupler-insensitive
T2 construct: S. cerevisiae DTY168 (ycf1 null) vacuolar-enriched membrane vesicles
Method: S. cerevisiae strain DTY168 (MATα his6, leu2-3, -112, ura3-52 ycf1::hisG) was transformed with pYES3-AtMRP1 or empty vector lacking the AtMRP1 insert (pYES3) by the LiOAc/PEG method (Giest et al., 1991, Yeast 7:253-263) and selected for uracil prototrophy by plating on AHC medium containing tryptophan (Kim et al., 1994, supra).
For the preparation of membrane vesicles, 15 ml volumes of stationary phase cultures of the transformants were diluted into 1 L of fresh AHC medium and grown to an OD600 nm of about 1.2. Membrane vesicles were purified as described herein and in Kim et al. (1995, supra).
[…] μl reaction volumes containing 3 mM ATP, 3 mM MgSO4, 5 μM gramicidin-D, 10 mM creatine phosphate, 16 units/ml creatine kinase, 50 mM KCl, 1 mg/ml BSA, 400 mM sorbitol, 25 mM Tris-Mes ([…]).
(§2) Cells were grown and vacuolar membrane-enriched vesicles were prepared as described (Kim et al., 1995, J Biol. Chem. 270:2630-2635-). […] Uptake was terminated by the addition of 1 ml ice-cold wash medium (400 mM sorbitol/3 mM Tris-Mes, pH 8.0) and vacuum filtration of the suspension through prewetted Millipore HA cellulose nitrate filters (pore size 0.45 μm). The filters were rinsed twice with wash medium, and the retained radioactivity was determined by liquid scintillation counting. Nonenergized uptake was estimated by the same procedure except that ATP was omitted from the uptake medium.

[4] = system: barley vacuoles; settings: cited from earlier work
[5] = target: T3, AtMRP2 (Arabidopsis thaliana, UniProt Q42093); assay: AtMRP2-dependent uptake by membrane vesicles from pYES3-AtMRP2-transformed DTY168 cells; assay type: biochemical; settings: MgATP-dependent, uncoupler-insensitive
T3 construct: S. cerevisiae DTY168 (ycf1 null) vacuolar-enriched membrane vesicles
Method: as §2
Membranes from DTY168/pYES3-AtMRP2 cells were incubated for 10 minutes in standard uptake medium containing 61.3 μM [^3 H]DNP-GS after which time 200 mM glucose and 50 units/ml hexokinase (Type F-300 from baker's yeast) were added. […] Control samples were treated identically except that no additions were made after the initial 10 minute incubation period.

T1 sequence (P39109 whole entry): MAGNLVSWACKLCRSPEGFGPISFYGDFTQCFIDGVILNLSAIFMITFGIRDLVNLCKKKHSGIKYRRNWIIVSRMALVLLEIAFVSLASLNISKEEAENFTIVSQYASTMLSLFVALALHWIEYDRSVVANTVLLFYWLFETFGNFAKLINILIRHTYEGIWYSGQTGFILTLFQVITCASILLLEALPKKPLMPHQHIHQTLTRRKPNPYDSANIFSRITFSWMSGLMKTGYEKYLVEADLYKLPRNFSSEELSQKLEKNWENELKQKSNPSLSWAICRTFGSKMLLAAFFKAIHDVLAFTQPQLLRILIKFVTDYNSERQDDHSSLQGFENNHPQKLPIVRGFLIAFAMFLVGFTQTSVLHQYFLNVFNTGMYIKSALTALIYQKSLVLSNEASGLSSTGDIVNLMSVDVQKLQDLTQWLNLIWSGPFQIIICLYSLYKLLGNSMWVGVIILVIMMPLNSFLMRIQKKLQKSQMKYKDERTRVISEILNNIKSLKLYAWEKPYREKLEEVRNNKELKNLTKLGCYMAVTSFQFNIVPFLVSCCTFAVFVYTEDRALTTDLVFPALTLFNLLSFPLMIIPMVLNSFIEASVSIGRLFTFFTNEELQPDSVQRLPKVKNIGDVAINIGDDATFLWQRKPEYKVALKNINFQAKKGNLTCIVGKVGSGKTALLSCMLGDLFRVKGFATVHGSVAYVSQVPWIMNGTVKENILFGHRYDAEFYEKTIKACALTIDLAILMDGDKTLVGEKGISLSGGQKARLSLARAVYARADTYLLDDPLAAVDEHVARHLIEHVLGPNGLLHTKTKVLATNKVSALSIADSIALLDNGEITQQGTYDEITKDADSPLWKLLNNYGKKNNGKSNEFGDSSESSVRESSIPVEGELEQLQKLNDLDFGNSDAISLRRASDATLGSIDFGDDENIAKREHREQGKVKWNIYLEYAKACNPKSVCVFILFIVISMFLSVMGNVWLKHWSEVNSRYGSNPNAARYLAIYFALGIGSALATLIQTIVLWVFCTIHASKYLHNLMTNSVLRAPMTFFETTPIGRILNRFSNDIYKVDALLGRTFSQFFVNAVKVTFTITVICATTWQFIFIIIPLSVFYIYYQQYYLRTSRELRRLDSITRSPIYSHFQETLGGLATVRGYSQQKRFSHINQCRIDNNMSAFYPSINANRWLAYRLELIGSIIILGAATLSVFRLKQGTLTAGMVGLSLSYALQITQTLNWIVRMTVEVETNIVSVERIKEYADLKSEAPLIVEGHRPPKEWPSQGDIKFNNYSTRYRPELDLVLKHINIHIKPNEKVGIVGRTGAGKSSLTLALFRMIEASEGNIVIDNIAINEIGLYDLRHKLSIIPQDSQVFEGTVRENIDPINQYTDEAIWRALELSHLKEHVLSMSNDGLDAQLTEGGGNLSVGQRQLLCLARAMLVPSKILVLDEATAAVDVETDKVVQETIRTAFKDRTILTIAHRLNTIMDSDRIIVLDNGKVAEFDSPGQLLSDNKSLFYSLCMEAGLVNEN
T3 sequence (Q42093 whole entry): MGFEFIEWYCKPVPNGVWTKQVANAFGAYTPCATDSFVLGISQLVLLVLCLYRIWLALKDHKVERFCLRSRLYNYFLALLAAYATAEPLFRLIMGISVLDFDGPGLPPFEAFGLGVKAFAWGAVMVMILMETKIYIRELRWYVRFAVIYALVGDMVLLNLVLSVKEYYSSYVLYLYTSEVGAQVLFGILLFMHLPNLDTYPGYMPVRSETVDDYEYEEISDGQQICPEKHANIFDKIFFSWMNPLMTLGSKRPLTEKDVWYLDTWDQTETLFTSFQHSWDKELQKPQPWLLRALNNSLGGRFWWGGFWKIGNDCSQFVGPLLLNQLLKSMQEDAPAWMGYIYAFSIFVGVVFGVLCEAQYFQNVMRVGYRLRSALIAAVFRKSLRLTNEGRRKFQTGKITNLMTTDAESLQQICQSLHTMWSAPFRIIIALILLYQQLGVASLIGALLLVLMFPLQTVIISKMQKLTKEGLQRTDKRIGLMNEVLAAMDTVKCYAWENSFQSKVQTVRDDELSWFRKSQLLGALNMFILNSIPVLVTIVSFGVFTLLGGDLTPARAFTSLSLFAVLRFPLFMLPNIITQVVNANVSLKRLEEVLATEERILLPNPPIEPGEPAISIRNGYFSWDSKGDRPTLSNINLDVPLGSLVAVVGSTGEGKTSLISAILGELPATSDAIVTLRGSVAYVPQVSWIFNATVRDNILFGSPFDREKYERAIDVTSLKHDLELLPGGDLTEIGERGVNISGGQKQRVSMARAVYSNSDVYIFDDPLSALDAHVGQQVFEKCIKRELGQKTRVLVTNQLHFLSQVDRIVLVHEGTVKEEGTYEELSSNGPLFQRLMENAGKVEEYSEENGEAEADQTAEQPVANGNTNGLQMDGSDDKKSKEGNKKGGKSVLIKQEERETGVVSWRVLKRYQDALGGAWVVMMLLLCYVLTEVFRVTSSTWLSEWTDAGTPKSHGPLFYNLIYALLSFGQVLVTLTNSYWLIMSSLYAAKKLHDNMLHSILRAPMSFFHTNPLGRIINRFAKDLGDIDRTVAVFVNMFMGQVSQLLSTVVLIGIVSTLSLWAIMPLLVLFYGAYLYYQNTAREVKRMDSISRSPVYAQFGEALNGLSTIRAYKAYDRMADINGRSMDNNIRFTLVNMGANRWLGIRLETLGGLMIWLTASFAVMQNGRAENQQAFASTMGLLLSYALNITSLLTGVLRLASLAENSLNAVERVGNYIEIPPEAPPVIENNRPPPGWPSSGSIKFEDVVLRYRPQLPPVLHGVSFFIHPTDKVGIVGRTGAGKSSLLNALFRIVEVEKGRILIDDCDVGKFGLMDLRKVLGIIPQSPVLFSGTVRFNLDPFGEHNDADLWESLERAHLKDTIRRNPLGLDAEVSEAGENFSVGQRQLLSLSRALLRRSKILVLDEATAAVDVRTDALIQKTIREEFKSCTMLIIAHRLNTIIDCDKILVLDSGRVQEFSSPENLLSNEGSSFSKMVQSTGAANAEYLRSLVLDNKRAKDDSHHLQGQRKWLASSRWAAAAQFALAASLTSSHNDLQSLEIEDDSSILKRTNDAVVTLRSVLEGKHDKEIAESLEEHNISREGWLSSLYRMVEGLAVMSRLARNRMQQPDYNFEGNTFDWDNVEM
T2 sequence (Q9C8G9 whole entry): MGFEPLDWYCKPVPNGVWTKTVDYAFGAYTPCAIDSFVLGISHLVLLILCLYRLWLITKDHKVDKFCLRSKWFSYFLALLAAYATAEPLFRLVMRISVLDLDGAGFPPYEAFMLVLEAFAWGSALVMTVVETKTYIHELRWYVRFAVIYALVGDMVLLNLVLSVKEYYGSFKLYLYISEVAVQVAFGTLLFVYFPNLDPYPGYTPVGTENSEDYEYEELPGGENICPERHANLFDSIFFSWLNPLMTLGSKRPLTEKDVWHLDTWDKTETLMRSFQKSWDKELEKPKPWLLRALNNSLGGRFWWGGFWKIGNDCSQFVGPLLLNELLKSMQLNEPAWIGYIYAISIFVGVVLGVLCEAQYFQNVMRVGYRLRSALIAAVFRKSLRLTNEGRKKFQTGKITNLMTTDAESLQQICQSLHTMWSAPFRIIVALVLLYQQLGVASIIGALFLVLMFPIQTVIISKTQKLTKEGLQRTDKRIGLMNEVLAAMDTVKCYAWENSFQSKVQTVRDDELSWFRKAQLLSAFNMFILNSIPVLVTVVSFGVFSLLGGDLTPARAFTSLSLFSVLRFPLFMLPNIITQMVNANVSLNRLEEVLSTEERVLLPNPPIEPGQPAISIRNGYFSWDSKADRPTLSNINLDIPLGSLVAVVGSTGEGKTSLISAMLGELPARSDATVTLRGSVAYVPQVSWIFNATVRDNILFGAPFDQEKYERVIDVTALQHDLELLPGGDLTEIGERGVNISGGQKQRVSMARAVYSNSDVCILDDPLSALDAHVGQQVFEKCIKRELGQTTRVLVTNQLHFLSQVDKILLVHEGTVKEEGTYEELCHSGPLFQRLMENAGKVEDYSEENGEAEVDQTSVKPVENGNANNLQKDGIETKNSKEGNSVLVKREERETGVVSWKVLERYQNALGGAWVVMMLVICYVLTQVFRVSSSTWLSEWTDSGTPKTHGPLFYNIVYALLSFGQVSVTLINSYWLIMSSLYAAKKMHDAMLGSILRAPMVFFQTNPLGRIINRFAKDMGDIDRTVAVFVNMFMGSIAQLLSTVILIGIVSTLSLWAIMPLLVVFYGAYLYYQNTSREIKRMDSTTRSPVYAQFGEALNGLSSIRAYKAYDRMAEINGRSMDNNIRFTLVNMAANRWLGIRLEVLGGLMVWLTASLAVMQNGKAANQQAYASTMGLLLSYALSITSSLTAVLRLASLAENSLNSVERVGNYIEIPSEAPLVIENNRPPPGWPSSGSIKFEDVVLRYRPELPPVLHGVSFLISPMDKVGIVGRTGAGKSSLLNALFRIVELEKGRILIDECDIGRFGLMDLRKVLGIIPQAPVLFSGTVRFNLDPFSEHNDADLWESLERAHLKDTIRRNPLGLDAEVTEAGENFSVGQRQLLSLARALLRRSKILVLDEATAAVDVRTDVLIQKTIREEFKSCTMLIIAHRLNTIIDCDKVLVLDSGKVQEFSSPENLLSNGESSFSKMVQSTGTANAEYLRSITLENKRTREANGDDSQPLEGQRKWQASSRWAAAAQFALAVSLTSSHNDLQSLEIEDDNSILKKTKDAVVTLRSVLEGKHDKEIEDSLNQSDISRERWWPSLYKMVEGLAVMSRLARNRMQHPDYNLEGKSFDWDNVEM

With `CCc1cccc(C)c1N(C(=O)CSC[C@H](NC(=O)CC[C@H](N)C(=O)O)C(=O)NCC(=O)O)C(C)COC` (stereo partly shown) [Metolachlor-GS] the “MgATP-dependent, uncoupler-insensitive DNP-GS uptake plus compound” value ([1]; 5 μM gramicidin D, GSH, GSSG 1 mM, GS-conjugates 100 μM) was 27.6 ± 0.9 nmol/mg/10 minutes, the “MgATP-dependent, uncoupler-insensitive DNP-GS uptake as percentage of control” value ([1]; 5 μM gramicidin D, GSH, GSSG 1 mM, GS-conjugates 100 μM, 10 min) was 57.7% and the inhibition at 100 µM ([1]; 100 μM compound) was ~50%. For the same compound, the “MgATP-dependent, uncoupler-insensitive DNP-GS uptake plus compound” value [2] was 4.8 ± 0.7 nmol/mg/10 minutes, the “MgATP-dependent, uncoupler-insensitive DNP-GS uptake as percentage of control” value ([2]; 10 min) was 73.8% and the “Vmax for AtMRP1-dependent uptake” value [3] was 17.5 ± 5.2 nmol/mg/10 min. For the same compound, the “Vmax for AtMRP1-dependent uptake” value ([3]; listed as metolachlor-GS) was 17.5±5.2 nmol/mg/10 min, the Km estimated previously [4] was 40 to 60 µM and the “Vmax for AtMRP2-dependent uptake” value [5] was 136.0 ± 28.1 nmol/mg/10 min. The “Vmax for AtMRP2-dependent uptake” value ([5]; listed as metolachlor-GS) was 136.0±28.1 nmol/mg/10 min.
